Experiments:
[1] = system: PPARα target genes (ACO, PDK-4, Apo CIII) in liver; assay: Hepatic expression of PPARα target genes (quantitative RT-PCR) in the ApoE2/E2 mouse; type: in vivo; conditions: 10 and 100 mpk, 7 days, normalized to 36B4
Text: The PPARα agonist properties previously measured in vitro should be translated at the hepatic level by a change in the level of expression of the target genes directly under the control of the PPARα receptor: the genes that were studied in these experiments are those coding for ACO (a key enzyme in the mechanism of β-oxidation of fatty acids), PDK-4 (an enzyme of carbohydrate metabolism) and Apo CIII (apolipoprotein involved in lipid metabolism). This change in gene expression after treatment with the compounds according to the invention is therefore also an indicator of their hypolipemic character.
Apo E2/E2 transgenic mice were kept in a cycle of light and darkness of 12 hours/12 hours at a constant temperature of 20±3° C. After acclimation for one week, the mice were weighed and put into groups of 6 animals selected in such a way that the distribution of their bodyweight and of their plasma lipid values determined first before the experiment are uniform. The compounds tested were suspended in carboxymethylcellulose (Sigma C4888) and administered at the chosen dose by stomach tube, at a rate of once a day for 7 days at the chosen dose. The animals had free access to water and food. At the end of the experiment, the animals were anesthetized after fasting for 4 hours, a blood sample was taken on anticoagulant (EDTA), then the mice were weighed and euthanased. The plasma was separated by centrifugation at 3000 rev/min for 20 minutes, and the samples were stored at +4° C. for the biochemical assays. Samples of liver were taken and frozen immediately in liquid nitrogen and then stored at −80° C. for subsequent analyses.
Total RNA was extracted from fragments of liver using the NucleoSpin® 96 RNA kit (Macherey Nagel, Hoerdt, France) according to the manufacturer's instructions. 1 μg of total RNA (quantified using the Ribogreen RNA quantification kit (Molecular Probes)) was then reverse transcribed to complementary DNA by a reaction of 1 hour at 37° C. in a total volume of 20 μl containing buffer 1× (Sigma), 1.5 mM of DTT, 0.18 mM of dNTPs (Promega), 200 ng of pdN6 (Amersham), 30U of RNase inhibitor (Sigma) and 1 μl of MMLV-RT (Sigma).
The quantitative PCR experiments were performed using the MyiQ Single-Color Real-Time PCR Detection System (Biorad, Marnes-la-Coquette, France) and were carried out using the iQ SYBR Green Supermix kit according to the supplier's recommendations, in 96-well plates, on 5 μl of diluted reverse transcription reaction mixtures, with a hybridization temperature of 55° C. Specific primer pairs of the genes under investigation were used:
The amount of fluorescence emitted is directly proportional to the amount of complementary DNA present at the start of the reaction and amplified during PCR. For each target investigated, a range is prepared by successive dilutions of a pool consisting of a few μl of different reverse transcription reactions. The relative levels of expression of each target are thus determined using the curves of efficacy obtained with the scale points.
The levels of expression of the genes of interest were then normalized relative to the level of expression of the 36B4 reference gene (whose specific primers are: […]
The induction factor, i.e. the ratio of the relative signal (induced by the compound according to the invention) to the mean of the relative values of the control group, was then calculated for each sample. The higher this factor, the more the compound has a character of activation of gene expression. The final result is represented as the mean of the induction values in each experimental group.

[2] = system: PPARδ target genes (PDK4, CPT1b, UCP2) in murine myocytes; assay: Expression of PPARδ target genes in murine myocytes (differentiated C2C12 cells); type: cell-based; conditions: 24 hours, Cpd 7 at 0.1, 1, 10 μM, Cpd 24 at 0.2, 2, 20 μM, normalized to 36B4
Description: The PPARδ agonist properties previously measured in vitro were evaluated by measuring, in murine myocytes, the expression of genes involved in lipid and carbohydrate metabolism and energy expenditure (PDK4, CPT1b, UCP2). Regulation of expression of these genes, in this cell type, is a direct consequence of the activation of PPARδ by the compounds according to the invention. The greater the increase in expression of the genes, the more the compound according to the invention is a stimulator of metabolism in muscle cells (Dressel U et al., 2003).
The C2C12 murine cells (from ECACC) are cultivated in DMEM medium (Gibco; 41965-039) supplemented with 1% L-glutamine (Gibco; 25030), 1% penicillin/streptomycin (VWR; BWSTL0022/100) and 10% decomplemented fetal calf serum (FCS. Gibco; 10270-106).
The cells are seeded in 24-well plates at a density of 50×10^3 cells/well. At confluence, the medium is replaced with a differentiation medium (base culture medium supplemented with 2% of horse serum (Gibco; 26050-088)) then culture is continued at 37° C. and 5% CO2 for 7 days in order to permit differentiation of the myoblasts into myocytes.
After 6 days of differentiation, the cells are put in a deprivation medium (base culture medium without serum) for 6 hours. The cells are then treated with the compounds according to the invention in the deprivation medium. The compounds according to the invention were tested at doses of 0.1, 1, 10 μM and 0.2, 2 and 20 μM respectively. The compounds according to the invention were dissolved in dimethylsulfoxide (DMSO, Sigma; D5879). The cells are treated for 24 hours at 37° C., 5% CO2. The effects for the compounds tested were compared with the effect of DMSO alone at a concentration of 0.1%.
These procedures were performed on the cells essentially as described in Example 10 (point c) of the Protocols.
The following primer pairs specific to the genes investigated were used: […]

[3] = system: db/db mouse; assay: Glucose tolerance test in the db/db mouse; type: in vivo; conditions: 30 mpk, treated 9 days, oral glucose 1 g/kg after fasting
Description: The aim of this study is to evaluate in vivo the antidiabetic character of the compounds according to the invention, in the db/db mouse (Berger J et al., 1996). The antidiabetic effect of the compounds is evaluated by measuring glycemia and insulinemia after 8 days of treatment. In diabetic animals (as in humans), administration of glucose leads to a significant increase in the plasma level of insulin. This induced hyperinsulinemia causes a lowering of glycemia, which is delayed in insulin-resistant animals, for example in the db/db mouse.
After 9 days, the animals were deprived of food for 16 hours before carrying out the glucose tolerance test. The latter consists of a single administration of glucose after fasting (administered orally at a dose of 1 g/kg). Blood samples were then taken from time to time to study the evolution of plasma glycemia.
Glucose was determined by enzyme assays (bioMérieux-Lyons-France) according to the suppliers recommendations.

SMILES	hepatic expression of gene coding for ACO [1]	hepatic expression of gene coding for ApoCIII [1]	hepatic expression of gene coding for PDK-4 [1]	expression of CPT1b [2]	expression of PDK4 [2]	expression of UCP2 [2]	glucose tolerance test (insulin resistance) [3]
COc1nc(-c2ccccc2)ccc1COc1ccc(OCC(=O)O)cc1 [Cpd 2, 2-(4-((2-methoxy-6-phenylpyridin-3-yl)methoxy)phenoxy)ethanoic acid]	hepatic overexpression	significant inhibition	hepatic overexpression				
COc1nc(-c2ccccc2)ccc1CNc1ccc(OCC(=O)O)cc1 [Cpd 4, 2-(4-(((2-methoxy-6-phenylpyridin-3yl)methyl)amino)phenoxy)ethanoic acid]	hepatic overexpression	significant inhibition	hepatic overexpression				
COc1nc(-c2ccc(C(F)(F)F)cc2)ccc1COc1ccc(OCC(=O)O)cc1 [Cpd 24, 2-(4-((2-methoxy-6-(4-(trifluoromethyl)phenyl)pyridin-3-yl)methoxy)-phenoxy)ethanoic acid]				significant effects of stimulating expression	significant effects of stimulating expression	significant effects of stimulating expression	marked decrease in insulin resistance

Source: patent publication US8461183B2, “PPAR agonist compounds, preparation and uses” (Genfit, priority 2008, dated 2013)
